Measurements from patent publication US8178506B2, “Oligomeric compounds and compositions for use in modulation of small non-coding RNAs” (Regulus Therapeutics Inc., priority 2003, dated 2012).
In the oligonucleotide strings, read from the 5' end, every base follows the letter of its sugar. An asterisk marks phosphorothioate; unmarked linkages are phosphodiester. Other units and linkages are bracketed, terminal groups are in braces. A string of capitals states the bases alone. e = 2'-O-(2-methoxyethyl) (MOE); [5mC] = 5-methylcytosine; d = 2'-deoxy (DNA)

Tests used:
Type in all cases: cell-based, mouse
IL-12 mRNA = IL-12 mRNA in LPS-activated primary murine macrophages; conditions: for IL-12 mRNA expression, % UTC: LPS, average of 3 treatments; for IL-12 mRNA expression, +IFN % UTC: 300 nM oligomeric compound, stimulation with IFN-gamma and LPS, average of 2 experiments
Protocol: (§1) To investigate the role of miRNAs in the immune response, oligomeric compounds of the present invention targeting miRNAs were tested for their effects upon lipopolysaccharide (LPS)-activated primary murine macrophages. Macrophages participate in the immune response, for example, in the recognition and phagocytosis of microorganisms, including bacteria. Interferon-gamma (IFN-gamma) released by helper T cells is one type of signal required for macrophage activation, and LPS can serve as an additional stimulus. LPS is a component of the gram-negative bacterial cell wall and acts as an agonist for toll-like receptor 4 (TLR4), the primary LPS receptor expressed by macrophages. The proinflammatory cytokines interleukin-12 (IL-12) and interleukin-6 (IL-6) are induced by LPS treatment of macrophages, thus the expression of the mRNAs encoding these cytokines was used to evaluate the response of macrophages to LPS following treatment with oligomeric compounds targeting miRNAs.
(§2) Macrophages were isolated as follows. Female C57B1/6 mice (Charles River Laboratories, Wilmington, Mass.) were injected intraperitoneally with 1 ml 3% thioglycollate broth (Sigma-Aldrich, St. Louis, Mo.), and peritoneal macrophage cells were isolated by peritoneal lavage 4 days later. The cells were plated in 96-well plates at 40,000 cells/well for one hour in serum-free RPMI adjusted to contain 10 mM HEPES (Invitrogen Life Technologies, Carlsbad, Calif.), allowed to adhere, then non-adherent cells were washed away and the media was replaced with RPMI containing 10 mM HEPES, 10% FBS and penicillin/streptomycin (“complete” RPMI; Invitrogen Life Technologies, Carlsbad, Calif.).
(§3) Oligomeric compounds were introduced into the cells using the non-liposomal transfection reagent FuGENE 6 Transfection Reagent (Roche Diagnostics Corp., Indianapolis, Ind.). Oligomeric compound was mixed with FuGENE 6 in 1 mL of serum-free RPMI to achieve a concentration of 10 μL FuGENE per 1000 nM oligomeric compound. The oligomeric compound/FuGENE complex was allowed to form at room temperature for 20 minutes. This mixture was diluted to the desired concentration of oligomeric compound by the addition of the appropriate volume of complete RPMI. The final ratio of FuGENE 6 to oligomeric compound was 1 μL of FuGENE 6 per 100 nM oligomeric compound. A volume of 100 μL of oligomeric compound/FuGENE/RPMI was added to each well of the 96-well plate in which the macrophages were cultured. Each oligomeric compound treatment was repeated in triplicate.
(§4) Following oligomeric compound treatment, cells were stimultated with LPS. Cells were cultured in the presence of the transfection complex for approximately 24 to 28 hours at 37° C. and 5% CO2, after which the medium containing the transfection complex was removed from the cells, and complete RPMI containing 100 ng/mL LPS (Sigma-Aldrich Corp., St. Louis, Mo.) was added to the cells for a period of approximately 24 hours. Control samples included (1) cells receiving no oligomeric compound, stimulated with LPS and (2) cells receiving neither oligomeric compound nor LPS treatment.
(§5) In another embodiment, following oligomeric compound treatment, cells were first activated by IFN-gamma, to amplify the response to LPS. Cells were cultured in the presence of the transfection complex for approximately 24 hours at 37° C. and 5% CO2, at which point the medium containing the transfection complex was removed from the cells, and complete RPMI containing 100 ng/mL recombinant mouse IFN-gamma (R&D Systems, Minneapolis, Minn.) was added to the cells. After the 4 hour treatment with INF-gamma, cells were treated with 100 ng/mL LPS for approximately 24 hours. Control samples included (1) cells receiving no oligomeric compound, stimulated with LPS and (2) cells receiving neither oligomeric compound nor LPS treatment. […]

IL-6 mRNA = IL-6 mRNA in LPS-activated primary murine macrophages; conditions: for IL-6 mRNA expression, % UTC: average of 3 treatments; for IL-6 expression: IFN-gamma-stimulated and unstimulated cells, 75-600 nM
Protocol: as §1, §2, §3, §4, §5

B16-F10 cells = assay: Cell cycle assay in B16-F10 cells; conditions: 150 nM, 48 hours, relative to untreated control
Protocol: BJ cells were routinely cultured in MEM high glucose with 2 mM L-glutamine and Earle's BSS adjusted to contain 1.5 g/L sodium bicarbonate and supplemented with 10% fetal bovine serum, 0.1 mM non-essential amino acids and 1.0 mM sodium pyruvate (all media and supplements from Invitrogen Life Technologies, Carlsbad, Calif.). B16-F10 cells were routinely cultured in DMEM high glucose (Invitrogen Life Technologies, Carlsbad, Calif.) supplemented with 10% fetal bovine serum (Invitrogen Life Technologies, Carlsbad, Calif.). T47D cells were cultured in DMEM High glucose media (Invitrogen Life Technologies, Carlsbad, Calif.) supplemented with 10% fetal bovine serum. […] Cells were plated on collagen-coated 24-well plates (Falcon-Primaria #3047, BD Biosciences, Bedford, Mass.) at approximately 50,000 cells per well and allowed to attach to wells overnight.
In further studies, additional cell lines were treated with oligomeric compounds targeted against miRNAs to assess the effects of each oligomeric compound on cell cycling. BJ, B16, T47D, and HeLa cells were cultured and transfected as described above. […] T47Dp53 cells are T47D cells that have been transfected with and selected for maintenance of a plasmid that expresses a wildtype copy of the p53 gene (for example, pCMV-p53; Clontech, Palo Alto, Calif.), using standard laboratory procedures. BJ cells were treated with 200 nM of each oligomeric compound, and T47D, T47Dp53, HeLa, and B16 cells were treated with 150 nM of each oligomeric compound. The human foreskin fibroblast BJ cell line represents a non-cancer cell line, while HeLa, T47D, T47Dp53 cells and the mouse melanoma cell line B16-F10 represent cancerous cell lines. For comparison, oligomeric compounds ISIS 183891 (SEQ ID NO: 847) and ISIS 285717 ([…]; herein incorporated as SEQ ID NO: 857), both targeting the kinesin-like 1/Eg5 mRNA, involved in cell cycling, were used as positive controls. The random-mer ISIS 29848 was used as a negative control. Additionally, the oligomeric compounds ISIS Number 25690 ([…]; herein incorporated as SEQ ID NO: 858) and ISIS Number 25691 ([…]; herein incorporated as SEQ ID NO: 859), targeted to nucleotides 3051-3070 and 3085-3104, respectively, of the mRNA encoding the Drosha RNase III (GenBank Accession NM_013235.2, incorporated herein as SEQ ID NO: 860) were also tested. ISIS Number 25690 and ISIS Number 25691 are 5-10-52′-MOE gapmer compounds, 20 nucleotides in length, with phosphorothioate internucleoside linkages throughout the oligomeric compound. All cytidine residues are 5-methylcytidines. Transfections were performed using the methods described herein. Cells were prepared for flow cytometry 48-hours after oligonucleotide treatment. Results of these studies are shown in Table 35, where data are expressed as percentage of cells in each phase relative to the untreated control cells in that phase.

[1] = normalized to LPS-treated cells without oligomeric compound

Substance | IL-12 mRNA expression, % UTC (IL-12 mRNA; 75 nM, +IFN) [% UTC] | IL-12 mRNA expression, % UTC (IL-12 mRNA; 75 nM, −IFN) [% UTC] | IL-12 mRNA expression, % UTC (IL-12 mRNA; 150 nM, +IFN) [% UTC] | IL-12 mRNA expression, % UTC (IL-12 mRNA; 150 nM, −IFN) [% UTC] | IL-12 mRNA expression, +IFN % UTC (IL-12 mRNA; [1]) [% UTC] | IL-12 mRNA expression, % UTC (IL-12 mRNA; 300 nM, +IFN) [% UTC] | IL-12 mRNA expression, % UTC (IL-12 mRNA; 300 nM, −IFN) [% UTC] | IL-12 mRNA expression, % UTC (IL-12 mRNA; 600 nM, +IFN) [% UTC] | IL-12 mRNA expression, % UTC (IL-12 mRNA; 600 nM, −IFN) [% UTC] | IL-6 mRNA expression, % UTC (IL-6 mRNA; 75 nM, +IFN) [% UTC] | IL-6 mRNA expression, % UTC (IL-6 mRNA; 75 nM, −IFN) [% UTC] | IL-6 mRNA expression, % UTC (IL-6 mRNA; 150 nM, +IFN) [% UTC] | IL-6 mRNA expression, % UTC (IL-6 mRNA; 150 nM, −IFN) [% UTC] | IL-6 mRNA expression, % UTC (IL-6 mRNA; 300 nM, +IFN) [% UTC] | IL-6 mRNA expression, % UTC (IL-6 mRNA; 300 nM, −IFN) [% UTC] | IL-6 mRNA expression, % UTC (IL-6 mRNA; 600 nM, +IFN) [% UTC] | IL-6 mRNA expression, % UTC (IL-6 mRNA; 600 nM, −IFN) [% UTC] | IL-6 expression (IL-6 mRNA) | also measured
229927 (antisense e[5mC]*e[5mC]*eA*e[5mC]*eA*dT*dT*dG*dA*dG*dT*dT*dT*d[5mC]*dT*eT*eT*eA*eA*eG) [compound 229927] | 46 | 67 | 35 | 53 | 145 | 16 | 45 | 8 | 46 | 54 | 57 | 39 | 52 | 40 | 44 | 69 | 104 | – | IL-12 mRNA expression, −IFN % UTC (IL-12 mRNA; 300 nM oligomeric compound and LPS, no IFN-gamma pretreatment, single experiment, normalized to LPS-treated cells without oligomeric compound): 92 % UTC
285717 (antisense TCGGTTCTTTCCAAGGCTGA; chemistry not given here) [compound 285717] | – | – | – | – | – | – | – | – | – | – | – | – | – | – | – | – | – | – | % cells in cell cycle phase G1 (B16-F10 cells): 72%; % cells in cell cycle phase G2/M (B16-F10 cells): 220%; % cells in cell cycle phase S (B16-F10 cells): 78%; % cells in cell cycle phase aneuploid (B16-F10 cells): 178%; % cells in cell cycle phase subG1 (B16-F10 cells): 627%
289606 (antisense CCUUCCCUGAAGGUUCCUCC; all 2'-MOE, all C 5-methyl, all phosphorothioate, T or U not given here) [compound 289606] | 59 | 89 | 46 | 99 | 129 | 52 | 80 | 66 | 98 | 78 | 77 | 69 | 68 | 70 | 65 | 59 | 77 | – | –
AACCCACCGACAGCAATGAATGTT (chemistry not given here) [ISIS 327941, uniform 2′-MOE PS; targets mir-181b] | – | – | – | – | – | – | – | – | – | – | – | – | – | – | – | – | – | increased in a dose-dependent manner | IL-12 mRNA expression, % of the untreated control (IL-12 mRNA; IFN-gamma then LPS, all doses): less than 5%
CTTCCAGTCGGGGATGTTTACA (anti-miR; chemistry not fully specified) [ISIS 327921, uniform 2′-MOE PS; targets mir-30d] | – | – | – | – | – | – | – | – | – | – | – | – | – | – | – | – | – | increased in a dose-dependent manner | IL-12 expression, % of the control (IL-12 mRNA; IFN-gamma then LPS, 75 nM): 14%; IL-12 expression, % of the untreated control (IL-12 mRNA; IFN-gamma then LPS, all other doses (150, 300, 600 nM)): less than 10%; IL-12 expression, percentage of untreated control (IL-12 mRNA; LPS alone, 75, 150, 300 and 600 nM): ≥ 53%; IL-12 mRNA expression (IL-12 mRNA; LPS-stimulated primary murine macrophages): inhibited IL-12 mRNA expression in a dose-dependent manner
